Experimental data taken from US20040049072A1, “RXR modulators with improved pharmacologic profile” (priority 1999, published 2004).
“Also recorded” adds a separate entry of the source. Where two headings read alike, the source gives them in different places.

Columns and labels:
RXRα = target: T1, RXRα (Homo sapiens, UniProt P19793); test: RXRα binding (competition with tritiated LGD1069); conditions: Table 2; from IC50 by Cheng-Prussof equation, tritiated LGD1069; read-out: Bind RXRα Ki
T1 sequence (P19793 1-462): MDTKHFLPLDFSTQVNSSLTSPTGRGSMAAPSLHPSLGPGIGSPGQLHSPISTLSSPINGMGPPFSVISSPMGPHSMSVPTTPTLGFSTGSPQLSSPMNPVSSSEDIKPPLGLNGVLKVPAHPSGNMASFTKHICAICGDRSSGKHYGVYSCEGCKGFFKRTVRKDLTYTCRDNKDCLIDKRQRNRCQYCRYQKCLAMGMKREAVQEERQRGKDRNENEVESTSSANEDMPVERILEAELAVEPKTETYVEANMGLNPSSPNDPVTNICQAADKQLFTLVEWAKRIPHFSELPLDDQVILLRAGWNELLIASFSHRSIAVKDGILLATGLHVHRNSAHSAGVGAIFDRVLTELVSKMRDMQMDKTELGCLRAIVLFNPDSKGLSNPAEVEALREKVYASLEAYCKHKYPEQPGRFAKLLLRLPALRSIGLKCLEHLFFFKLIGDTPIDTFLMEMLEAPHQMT
Method: Non-specific binding was defined as that binding remaining in the presence of 500 nM of the appropriate unlabelled compound. At the end of the incubation period, bound ligand was separated from free. The amount of bound tritiated retinoid was determined by liquid scintillation counting of an aliquot (700 μL) of the supernatant fluid or the hydroxylapatite pellet.
After correcting for non-specific binding, IC50 values were determined. […] The IC50 value was determined graphically from a log-logit plot of the data. The Ki values were determined by application of the Cheng-Prussof equation to the IC50 values, the labeled ligand concentration and the Kd of the labeled ligand.

db/db mouse = db/db mouse study (rodent model of Type II diabetes); conditions: for inhibition in vivo at 30 mg/kg: Mus musculus, po, 168 h, read-out: db/db mouse Glu. (D7); for db/db mouse Trigs. (D3): plasma triglycerides as % of control values, day 3, 30 mg/kg/day
Method: Mice (obtained from Jackson Laboratory), ZDF rats (obtained from Genetic Models Inc.) and fa/fa rats (obtained from either Charles River, or Harlan) were maintained on 12-hour light/dark cycle. […] Compounds were administered at the specified doses by oral gavage on the morning of each day of any experiment. Blood samples were obtained 3 hours after dosing from fed animals under anesthesia and collected into heparinized capillary tubes from the tail vein.

[1] = target: T2, (Homo sapiens, UniProt P19793); test: RXR homodimer co-transfection assay in CV-1 cells; format: cell-based; conditions: CV-1
T2 sequence (P19793 1-462): T1 sequence (P19793 1-462)
Excerpt: In the co-transfection assay, cloned cDNA for one or more IRs (e.g., human RARα, RXRα, or PPARγ), alone or in combination (i.e. for heterodimer assays) under the control of a constitutive promoter (e.g., the SV 40, RSV or CMV promoter) is introduced by transfection (a procedure to introduce exogenous genes into cells) into a background cell substantially devoid of endogenous IRs. These introduced gene(s) direct the recipient cells to make the IR protein(s) of interest. A further gene is also introduced (co-transfected) into the same cells in conjunction with the IR gene(s). This further gene, comprising the cDNA for a reporter protein, such as firefly luciferase (LUC), controlled by an appropriate hormone responsive promoter containing a hormone response element (HRE). This reporter plasmid functions as a reporter for the transcriptional-modulating activity of the target IR(s). Thus, the reporter acts as a surrogate for the products (mRNA then protein) normally expressed by a gene under control of the target receptor(s) and their native hormone(s).
Exposing the transfected cells to an agonist ligand compound increases reporter activity in the transfected cells. This activity can be conveniently measured, e.g., by increasing luciferase production and enzymatic activity, which reflects compound-dependent, IR-mediated increases in reporter transcription. […] Increasing concentrations of an antagonist will decrease the reporter signal (e.g., luciferase production). The co-transfection assay is therefore useful to detect both agonists and antagonists of specific IRs. Furthermore, it determines not only whether a compound interacts with a particular IR, but whether this interaction mimics (agonizes) or blocks (antagonizes) the effects of native or synthetic regulatory molecules on target gene expression, as well as the specificity and strength of this interaction.
The receptor expression plasmid was cotransfected along with a reporter plasmid at 50 ng/well, the internal control plasmid pRS-β-Gal at 50 ng/well and filler DNA, pGEM, at 90 ng/well.
Six hours after transfection, media was removed and the cells were washed with phosphate-buffered saline (PBS). Media containing compounds of the present invention in concentrations ranging from 10^−10 to 10^−5 M were added to the cells. […] Retinoids were dissolved in dimethylsulfoxide for use in the transcriptional activation assays. Two to three replicates were used for each sample. Transfections and subsequent procedures were performed on a Biomek 1000 automated workstation.
After 40 hours, the cells were washed with PBS, lysed with a detergent-based buffer and assayed for LUC and β-Gal activities using a luminometer or spectrophotometer, respectively. For each replicate, the normalized response (NR) was calculated as: […]
The mean and standard error of the mean (SEM) of the NR were calculated. Data were plotted as the response of the compound compared to the reference compounds over the range of the dose-response curve. […] Antagonist activity was determined by testing the amount of LUC expression in the presence of the RXR agonists described above at the EC50 concentration for such known compounds. […] In addition, the efficacy of antagonists was determined as a function (%) of maximal inhibition.

RXRα:RAR heterodimer = target: T3, RXRα:RAR heterodimer (Homo sapiens, UniProt P19793); test: RXR:RAR heterodimer co-transfection assay in CV-1 cells; format: cell-based; conditions: CV-1; read-out: RXR:RAR CV-1 (%) Ag.
T3 construct: expressed in transfected cells; host or cells: CV-1 cells
T3 sequence (P19793 1-462): T1 sequence (P19793 1-462)
Method: For determination of agonist activity in the context of the RXR:RAR heterodimer or the RXR:PPARγ heterodimer, media containing compounds of the present invention in concentrations ranging from 10^−10 to 10^−5 M were added to the cells.
Compounds of the present invention were also tested for the ability to synergize with a PPARγ agonist in the context of an RXR heterodimer. […] Efficacy of the compounds of the present invention in the agonist and synergy assays was calculated as the maximum response obtained over the range of the dose response curve relative to the maximum response obtained by the reference agonist. Antagonist efficacy was determined as a function (%) of maximal inhibition.
However, when RAR is occupied, typical RXR agonists activate the heterodimer. […] To examine the effects of the compounds of the present invention on the transcriptional properties of the RXR:RAR heterodimer, a heterodimer cotransfection assay as described above was employed.

Crl:CD-1 (ICR)BR mice = test: teratogenicity in pregnant Crl:CD-1 (ICR)BR mice; format: in vivo, mouse; conditions: for teratogenicity in fetuses: daily oral gavage, gestation days 6-18, L6 30 or 200 mg/kg-day, LG100268 30 or 100 mg/kg-day
Method: Teratogenicity is commonly evaluated by examination of fetuses obtained by cesarean section from pregnant mice dosed daily with test compound between gestation days 6-18. We have conducted a blinded study using time-mated female Crl:CD-1® (ICR)BR mice to evaluate potential developmental toxicity (teratogenicity) following administration of L6 at either 30 or 200 mg/kg-day by daily oral gavage for the specified […] of gestation. Each test group consisted of 7-8 pregnant females and produced approx. 100 live fetuses per test group. […] The highest dose of L6 tested (200 mg/kg-day) is twice the dose required to produce maximum antidiabetic activity in db/db mice (100 mg/kg-day).

[2] = tested on: mice transgenic for the human apolipoprotein A-I gene; test: transgenic mice carrying the human apo A-I gene (HDL cholesterol, triglycerides); format: in vivo, mouse
Excerpt: Mice transgenic for the human apolipoprotein A-I gene (obtained from Jackson Laboratory) were used to evaluate PPARalpha mediated effects on HDL cholesterol. The mice were handled as described above for db/db mice, except that they were fed Purina 5001.

[3] = rodent models of Type II Diabetes

SMILES	Ki (RXRα) [nM]	inhibition in vivo at 30 mg/kg (db/db mouse) [%]	db/db mouse Trigs. (D3) (db/db mouse) [%]	insulin sensitizing activity with thyroid axis suppression and triglyceride elevations (db/db mouse; [3])	Emax ([1]; Table 2, first RXR:RAR head (c4), maximal repression (100%) in presence of 32 nM LGD1069 (RXR:RXR), read-out: RXR:RAR CV-1 (%) Antag.) [%]	Emax ([1]; read-out: RXR:RAR CV-1 (%) Ag.) [%]	Emax (RXRα:RAR heterodimer) [%]	Corpora lutea, implantation sites, live or dead fetuses, resorptions, fetal weight or sex, external and cranial visceral morphology (Crl:CD-1 (ICR)BR mice; L6 at 30 or 200 mg/kg-day compared to vehicle controls)	teratogenicity in fetuses (Crl:CD-1 (ICR)BR mice)	dose required to produce maximum antidiabetic activity in db/db mice (db/db mouse; db/db mice) [mg/kg-day]	triglycerides [2]	db/db mouse Glu. (D 14) (db/db mouse; plasma glucose, % correction relative to lean values, day 14, 100 mg/kg daily oral gavage) [%]	db/db mouse Trigs. (D 14) (db/db mouse; plasma triglycerides, % correction relative to lean values, day 14, NC = no change) [%]	effect on the thyroid hormone axis (db/db mouse; [3])	effect on triglycerides (db/db mouse; [3])	insulin sensitizing activity / effect on glucose (db/db mouse; [3])	db/db mouse T4 (D 3) (db/db mouse; total T4 as % of obese control values, day 3, NC = no change) [%]
CC(/C=C/C1=C(c2cc(C(C)C)cc(C(C)C)c2OCCCF)CCC1)=C\C(=O)O [Compound L14]	5	45	138	maintain the desirable insulin sensitizing activity and minimize both the suppression of the thyroid axis and triglyceride elevations	80	3	2	–	–	–	–	–	–	–	–	–	–
CCCCOc1c(\C(C)=C/C=C/C(C)=C/C(=O)O)cc(C(C)C)cc1C(C)C [Compound L6]	–	–	–	maintain the desirable insulin sensitizing activity and eliminate or reduce both the suppression of the thyroid axis and triglyceride elevations; also recorded: maintain the desirable insulin sensitizing activity and minimize both the suppression of the thyroid axis and triglyceride elevations	–	–	–	no effects were observed	no teratogenic effects were observed	100	–	–	–	–	–	–	–
Cc1cc2c(cc1C1(c3ccc(C(=O)O)cn3)CC1)C(C)(C)CCC2(C)C [LG100268, 6-[1-(3,5,5,8,8-pentamethyl-5,6,7,8-tetrahydronaphthalen-2-yl)cyclopropyl]nicotinic acid, reference compound]	–	73	195	–	–	–	–	–	Teratogenicity was observed	–	substantially raise triglycerides	73	82	suppress the thyroid hormone axis	raise triglycerides	efficacious insulin sensitizers	43
